Assay results from patent US20120045433A1, “COMBINATION THERAPY” (priority 2010, published 2012).
Structures can show the parent of a compound that is named as a salt.

How the values were obtained:
[1] = test system: human HT-29 cell xenografts; test: Antitumor activity (tumor growth inhibition, regression) in mice with human HT-29 colorectal cancer xenografts; format: in vivo; settings: for % Tumor Growth Inhibition: Compound I 25 mg/kg bid, cetuximab 40 mg/kg 2x/wk, irinotecan HCl 40 mg/kg q4d x5, alone or combined
Text: (§1) Mice were implanted with human HT-29 cell xenografts. The mice, cell line used, and implantation are described below.
Tumor measurements were taken once or twice per week. All animals were individually followed throughout the experiment.

[2] = test system: human HT-29 cell xenografts; test: Assessment of survival (increased life span) in mice with human HT-29 xenografts; format: in vivo; settings: for 50% Treatment Days: median survival, Kaplan Meier, vehicle 30 days, same doses
Experimental: as §1
For survival assessment, the percent of increased life space (ILS) was calculated as: 100×[(median survival day of treated group−median survival day of control group)/median survival day of control group]. Median survival was determined utilizing Kaplan Meier survival analysis. […] Differences between groups were considered significant when the probability value (p) was ≦0.05.

[3] = number of mice out of 10 per group, same doses

Row | SMILES | Mean Tumor Volume (mm^3) End Study ([1]; Compound I 25 mg/kg bid po, cetuximab 40 mg/kg 2x/wk ip, irinotecan HCl 40 mg/kg q4d x5 ip, alone or combined, end of study day 32) | % Tumor Growth Inhibition [1] | Mean Tumor Volume (mm^3) Start Study ([1]; baseline at start of treatment (day 11 post implant)) | % Inhibition end of study Day: 32 ([1]; same doses) | % T/C end of study Day: 32 ([1]; same doses) | % ILS ([2]; increased life span versus vehicle, Compound I 25 mg/kg bid, cetuximab 40 mg/kg 2x/wk, irinotecan HCl 40 mg/kg q4d x5, alone or combined) | 50% Treatment Days [2] | Complete Regression [1, 3] | Partial Regression [1, 3]
1 | CCCS(=O)(=O)Nc1ccc(F)c(C(=O)c2c[nH]c3ncc(-c4ccc(Cl)cc4)cc23)c1F [Compound I, propane-1-sulfonic acid {3-[5-(4-chlorophenyl)-1H-pyrrolo[2,3-b]pyridine-3-carbonyl]-2,4-difluoro-phenyl}-amide] | 563.72 mm^3 | 76% | 136.24 mm^3 | 76% | 24% | 80% | 54 days | – | –
2 | CCc1c2c(nc3ccc(OC(=O)N4CCC(N5CCCCC5)CC4)cc13)-c1cc3c(c(=O)n1C2)COC(=O)[C@]3(O)CC [Irinotecan HCl, irinotecan hydrochloride, reference compound] | – | 59% | – | 59% | 41% | – | 35 days | 0 | 0
